Assay: physchem
Conditions: octanol/water

Structure (SMILES)	logP
c1ccc(-c2ccccc2)cc1 [BIPHENYL]	4.03
Cc1ccccc1Cl	3.5
CCCl [ETHYL CHLORIDE]	1.47
CCCC(C)C	3.74
CC(=O)Oc1cc(C)c(OC(C)=O)c2ccccc12 [ACETOMENAPHTHONE]	3.59
Cc1ccc2cc3ccccc3cc2c1	5.14
Clc1cc(Cl)c(Cl)c(Cl)c1	4.99
CCc1c2ccccc2cc2c1ccc1ccccc12	6.84
CCCCCCCCCC [DECANE]	5.98
c1ccc2c(c1)Cc1cc3ccccc3cc1-2 [BENZO[B]FLUORENE]	5.4
Cc1cccc(Cl)c1	3.5
Cc1cccc2c1Cc1ccccc1-2	4.87
BrCCBr [1,2-DIBROMOETHANE]	1.74
CCCCCCCC [OCTANE]	4.93
c1ccc2c(c1)ccc1c3ccccc3ccc21	5.66
c1ccc2c(c1)cc1ccc3cccc4ccc2c1c34	6.12
CCCCl	1.99
ClC(Cl)C(Cl)Cl [1,1,2,2-TETRACHLOROETHANE]	2.64
C1=CCCCC1 [CYCLOHEXENE]	2.81
C1CCCCC1 [CYCLOHEXANE]	3.35
c1ccc2cc3c(ccc4ccccc43)cc2c1	5.66
CC(Cl)(Cl)Cl [TRICHLOROETHANE]	2.48
Clc1ccccc1-c1ccccc1	4.74
Clc1cc(Cl)c(-c2ccccc2Cl)cc1Cl	6.88

Structure (SMILES)	logP
c1ccc2c3c(ccc2c1)-c1cccc2cccc-3c12 [BENZO(J)FLUORANTHENE]	6.12
CCc1ccccc1 [ETHYLBENZENE]	3.32
Cc1cccc(C)c1C	4.09
Cc1cc2ccccc2cc1C	4.61
c1ccc2c(c1)c1cccc3ccc4cccc2c4c31 [BENZO[E]PYRENE]	6.12
Cc1ccc(C)c2ccccc12	4.61
CCCCCCCl	3.58
CCCCCCC [HEPTANE]	4.4
CCCCc1ccccc1 [BUTYLBENZYL]	4.74
ClCCCl [1,2-DICHLOROETHANE]	1.46
c1ccc2cc3cc4ccccc4cc3cc2c1	5.66
Cc1ncc(C[n+]2csc(CCO)c2C)c(N)n1 [THIAMINE ION]	-3.93
Clc1cc(Cl)c(-c2ccccc2)cc1Cl	6.17
Cc1ccc(C)cc1 [P-XYLENE]	3.44
Cc1cccc2c(C)cccc12	4.61
Cc1cc(O)c2ccccc2c1O [VITAMIN K3H2]	2.76
Clc1cc(-c2ccccc2)c(Cl)c(Cl)c1Cl	6.88
Clc1ccccc1Cl [1,2-DICHLOROBENZENE]	3.57
Cc1c2ccccc2cc2ccc3ccccc3c12	6.31
c1cc2c3c(c4ccc5ccccc5c4cc3c1)CC2 [CHOLANTHRENE]	6.42
Cc1c(C)c2c3ccccc3ccc2c2ccccc12	6.96
ClC(Cl)=C(Cl)Cl [TETRACHLOROETHYLENE]	3.02
C[S+](C)CC[C@H](N)C(=O)O [METHYLMETHIONINE SULFONIUM CHLORIDE]	0.28
CCCc1ccccc1	3.85

Structure (SMILES)	logP
Cc1cc2c3ccccc3ccc2c2ccccc12	6.31
ClC(Cl)(Cl)Cl [CARBON TETRACHLORIDE]	2.88
Cc1c(C)c(C)c(C)c(C)c1C [HEXAMETHYLBENZENE]	6.04
Clc1ccc(-c2ccccc2Cl)cc1	5.46
CC(C)CCC[C@@H](C)[C@H]1CC[C@H]2C3=CC=C4C[C@@H](O)CC[C@]4(C)[C@H]3CC[C@]12C	8.65
CCCCC(C)C	4.27
C1CCCCCC1 [CYCLOHEPTANE]	3.91
Clc1cccc(Cl)c1Cl	4.28
Cl/C=C/Cl	1.51
C=CCCC	2.79
Cc1c2ccccc2cc2c1ccc1ccccc12	6.31
CC(C)c1ccccc1 [ISOPROPYLBENZENE]	3.72
Clc1ccc2c(ccc3ccccc32)c1	5.2
CCCCCC [HEXANE]	3.87
CCCCCCCCl	4.11
C1=CCCC1 [CYCLOPENTENE]	2.25
Clc1ccc(-c2ccccc2Cl)c(Cl)c1	6.17
Cc1c2ccccc2c(C)c2ccccc12	5.79
c1ccc2c(c1)ccc1cc3c(ccc4ccccc43)cc12	6.84
Cc1c2ccccc2cc2ccccc12	5.14
O=C(O)CCCC[C@@H]1SC[C@@H]2NC(=O)N[C@@H]21 [BIOTIN]	0.39
Clc1cccc(Cl)c1-c1ccccc1	5.46
CC(C)(C)c1ccccc1 [tert-Butylbenzene]	4.12
FC(Cl)(Cl)Cl [TRICHLOROMONOFLUOROMETHANE]	2.44

Structure (SMILES)	logP
Cc1cc(C)c(C)cc1C	4.74
CCCCCCCCC [NONANE]	5.46
c1ccc2c(c1)-c1cccc3cccc-2c13 [FLUORANTHENE]	4.95
Cc1ccccc1C [O-XYLENE]	3.44
Clc1cccc(Cl)c1	3.57
Cc1ccc2cc(C)ccc2c1	4.61
Cc1ccc2ccccc2c1	3.96
c1ccc2c(c1)Cc1ccccc1-2 [FLUORENE]	4.22
CCCC [BUTANE]	2.81
Nc1nc2ncc(CNc3ccc(C(=O)N[C@@H](CCC(=O)O)C(=O)O)cc3)nc2c(=O)[nH]1 [FOLIC ACID]	-2.81
c1ccc2ccccc2c1	3.32
CCCCCCl	3.05
Cc1ccc(C)c(C)c1	4.09
Clc1cc(Cl)cc(Cl)c1 [1,3,5-TRICHLOROBENZENE]	4.28
CCC(C)(C)c1ccccc1 [tert-Amylbenzene]	4.65
Cc1ccc(Cl)cc1	3.5
Cc1ccc(C)c2c(C)cccc12	5.26
c1ccc2c(c1)-c1cccc3c1c-2cc1ccccc13 [BENZO[B]FLUORANTHENE]	6.12
Clc1cc(Cl)c(Cl)cc1Cl	4.74
Brc1ccccc1Br	3.59
CC1=C(/C=C/C(C)=C/C=C/C(C)=C/CO)C(C)(C)CC=C1 [VITAMIN A2]	7.41
c1ccc2cc3c(cc2c1)-c1cccc2cccc-3c12 [BENZO(K)FLUORANTHENE]	6.12
Clc1cc(Cl)c(-c2ccccc2)c(Cl)c1	6.17
Cc1ccc(C(C)C)cc1 [P-CYMENE]	4.37

Structure (SMILES)	logP
c1ccc2c(c1)ccc1ccccc12	4.49
Cc1cccc(C)c1 [M-XYLENE]	3.44
Clc1ccccc1 [CHLOROBENZENE]	2.85
c1cc2cccc3c4cccc5cccc(c(c1)c23)c54	6.12
c1ccc(CCc2ccccc2)cc1	4.89
ClC=C(Cl)Cl [TRICHLOROETHYLENE]	2.27
C1C2CC3CC1CC(C2)C3	3.98
CC(C)CC(C)(C)C	4.54
Cc1cccc2ccccc12	3.96
CC(C)(CO)[C@@H](O)C(=O)NCCC(=O)O [PANTOTHENIC ACID]	-1.69
Cc1cc(C)c(C)c(C)c1	4.74
Nc1ncnc2c1ncn2[C@@H]1O[C@H](COP(=O)(O)O)[C@@H](O)[C@H]1O [ADENOSINE PHOSPHATE]	-1.68
CCCCCCCCCCC	6.51
c1ccc2c(c1)c1ccccc1c1ccccc21	5.66
Cc1ccc(C)c(C)c1C	4.74
CCCCC [PENTANE]	3.34
NC1=C2NCN=C2N=CN1 [VITAMIN B4]	-0.09
CCc1cccc2ccccc12	4.49
Clc1ccc(Cl)c(Cl)c1	4.28
c1cc2ccc3ccc4ccc5cccc6c(c1)c2c3c4c56	6.58
CCSCC [DIETHYL SULFIDE]	1.9
Clc1cccc2ccccc12	4.03
Clc1c(Cl)c(Cl)c(Cl)c(Cl)c1Cl [PERCHLOROBENZENE]	6.42
Cc1cccc2ccc3cc4ccccc4cc3c12	6.31

Structure (SMILES)	logP
Brc1ccc(Br)cc1	3.87
CCCCCl [BUTYL CHLORIDE]	2.52
Cc1cc2ccccc2c2ccc3ccccc3c12	6.31
Cc1ccc2c(ccc3ccccc32)c1	5.14
C=CCC	2.27
Cc1cc(C)c(C)c(C)c1C	5.39
Clc1ccc2ccccc2c1	4.03
Clc1ccc(Cl)cc1 [1,4-DICHLOROBENZENE]	3.57
Clc1cc(Cl)c(Cl)c(Cl)c1Cl [PENTACHLOROBENZENE]	5.71
CCC(C)C	3.21
CSC	0.842
c1cc2ccc3cccc4ccc(c1)c2c34 [PYRENE]	4.95
c1ccc2c(c1)Cc1c-2ccc2ccccc12 [BENZO(A)FLUORENE]	5.4
C1CCCC1 [CYCLOPENTANE]	2.79
c1cc2c3c(cccc3c1)CC2	4.07
Clc1ccc(Cl)c(-c2ccccc2)c1	5.46
Cc1ccc2c3ccccc3c3cccc4ccc1c2c43	6.77
C1CCCCCCC1 [CYCLOOCTANE]	4.47
Cc1cc(C)cc(C)c1	4.09
c1ccc2c(c1)ccc1cc3ccc4ccccc4c3cc12	6.84

Assay: not given
Conditions: octanol/water

logP	Structure (SMILES)
-2.02	C[C@@H]1O[C@@H](OC[C@H]2O[C@@H](Oc3c(-c4ccc(O)c(O)c4)oc4cc(O)cc(O)c4c3=O)[C@H](O)[C@@H](O)[C@@H]2O)[C@H](O)[C@H](O)[C@H]1O [RUTIN]
11.71	CC1=C(C/C=C(\C)CCC[C@H](C)CCC[C@H](C)CCCC(C)C)C(=O)c2ccccc2C1=O [PHYTONADIONE]
10.44	C=C1CC[C@H](O)C/C1=C/C=C1\CCC[C@]2(C)[C@@H]([C@H](C)/C=C/[C@H](C)C(C)C)CC[C@@H]12 [ERGOCALCIFEROL]

Structure (SMILES)	logP
C=C1CC[C@H](O)C/C1=C/C=C1\CCC[C@]2(C)[C@@H]([C@H](C)CCCC(C)C)CC[C@@H]12 [CHOLECALCIFEROL]	10.24
ClC(Cl)C(Cl)(Cl)Cl [PENTACHLOROETHANE]	3.627

Source: ChEMBL document CHEMBL1795329, “QSPR modeling of octanol/water partition coefficient for vitamins by optimal descriptors calculated with SMILES” (Eur J Med Chem, 2008)
